Laboratory results as given in PubChem BioAssay (NCI).
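Abbreviation: GI50, concentration required for 50% inhibition of growth. TGI: total growth inhibition.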

Tests used:
Test in all cases: NCI anticancer screen, dose series, 384-well format
786-0 renal = test system: 786-0 renal
A498 renal = test system: A498 renal
A549 NSCLC = test system: A549 NSCLC
ACHN renal = test system: ACHN renal
BT-549 breast = test system: BT-549 breast
CAKI-1 renal = test system: CAKI-1 renal
CCRF-CEM leukemia = test system: CCRF-CEM leukemia
COLO 205 colon = test system: COLO 205 colon
DU-145 prostate = test system: DU-145 prostate
EKVX NSCLC = test system: EKVX NSCLC
HCC-2998 colon = test system: HCC-2998 colon
HCT-116 colon = test system: HCT-116 colon
HCT-15 colon = test system: HCT-15 colon
HL-60(TB) leukemia = test system: HL-60(TB) leukemia
HOP-62 NSCLC = test system: HOP-62 NSCLC
HOP-92 NSCLC = test system: HOP-92 NSCLC
HS 578T breast = test system: HS 578T breast
HT29 colon = test system: HT29 colon
IGROV1 ovarian = test system: IGROV1 ovarian
K-562 leukemia = test system: K-562 leukemia
KM12 colon = test system: KM12 colon
LOX IMVI melanoma = test system: LOX IMVI melanoma
M14 melanoma = test system: M14 melanoma
MALME-3M melanoma = test system: MALME-3M melanoma
MCF7 breast = test system: MCF7 breast
MDA-MB-231 breast = test system: MDA-MB-231 breast
MDA-MB-435 melanoma = test system: MDA-MB-435 melanoma
MDA-MB-468 breast = test system: MDA-MB-468 breast
MOLT-4 leukemia = test system: MOLT-4 leukemia
NCI-H226 lung = test system: NCI-H226 lung
NCI-H23 lung = test system: NCI-H23 lung
NCI-H322M lung = test system: NCI-H322M lung
NCI-H460 NSCLC = test system: NCI-H460 NSCLC
NCI-H522 lung = test system: NCI-H522 lung
NCI/ADR-RES ovarian = test system: NCI/ADR-RES ovarian
OVCAR-3 ovarian = test system: OVCAR-3 ovarian
OVCAR-4 ovarian = test system: OVCAR-4 ovarian
OVCAR-5 ovarian = test system: OVCAR-5 ovarian
OVCAR-8 ovarian = test system: OVCAR-8 ovarian
PC-3 prostate = test system: PC-3 prostate
RPMI-8226 leukemia = test system: RPMI-8226 leukemia
RXF 393 renal = test system: RXF 393 renal
SF-268 CNS = test system: SF-268 CNS
SF-295 CNS = test system: SF-295 CNS
SF-539 CNS = test system: SF-539 CNS
SK-MEL-28 melanoma = test system: SK-MEL-28 melanoma
SK-MEL-5 melanoma = test system: SK-MEL-5 melanoma
SK-OV-3 ovarian = test system: SK-OV-3 ovarian
SN12C renal = test system: SN12C renal
SNB-19 CNS = test system: SNB-19 CNS
SNB-75 CNS = test system: SNB-75 CNS
SW-620 colon = test system: SW-620 colon
T-47D breast = test system: T-47D breast
TK-10 renal = test system: TK-10 renal
U251 glioblastoma = test system: U251 glioblastoma
UACC-257 melanoma = test system: UACC-257 melanoma
UACC-62 melanoma = test system: UACC-62 melanoma
UO-31 renal = test system: UO-31 renal

In the case of O=C(c1ccc(F)c(F)c1Nc1ccc(I)cc1F)N1CC(O)([C@H]2CCCCN2)C1, the GI50 ([…]-0 renal) is reported as 1240 nM, the TGI (786-0 renal) is reported as 2590 nM and the GI50 (A498 renal) is reported as 1220 nM. The TGI (A498 renal) was 2500 nM, the GI50 (A549 NSCLC) was 807 nM and the TGI (A549 NSCLC) was 2610 nM. The GI50 (ACHN renal) was 1870 nM, the TGI (ACHN renal) was 15400 nM and the GI50 (BT-549 breast) was 2250 nM. The TGI (BT-549 breast) was 5840 nM, the GI50 (CAKI-1 renal) was 994 nM and the TGI (CAKI-1 renal) was 14400 nM. The GI50 (CCRF-CEM leukemia) was 1930 nM, the TGI (CCRF-CEM leukemia) was 3570 nM and the GI50 (COLO 205 colon) was 101 nM. The TGI (COLO 205 colon) was 589 nM, the GI50 (DU-145 prostate) was 3810 nM and the TGI (DU-145 prostate) was 14800 nM. It also gave a GI50 (EKVX NSCLC) of 2750 nM, a TGI (EKVX NSCLC) of 12600 nM and a GI50 (HCC-2998 colon) of 200 nM. For the same molecule, the TGI (HCC-2998 colon) was 1210 nM, the GI50 (HCT-116 colon) was 615 nM and the TGI (HCT-116 colon) was 2060 nM. It also gave a GI50 (HCT-15 colon) of 3330 nM, a TGI (HCT-15 colon) of 14500 nM and a GI50 (HL-60(TB) leukemia) of 212 nM. The TGI (HL-60(TB) leukemia) was 1260 nM, the GI50 (HOP-62 NSCLC) was 1280 nM and the TGI (HOP-62 NSCLC) was 8420 nM. For the same molecule, the GI50 (HOP-92 NSCLC) was 888 nM, the TGI (HOP-92 NSCLC) was 2170 nM and the GI50 (HS 578T breast) was 4160 nM. The TGI (HS 578T breast) was 16300 nM, the GI50 (HT29 colon) was 185 nM and the TGI (HT29 colon) was 1350 nM. The GI50 (IGROV1 ovarian) was 500 nM, the TGI (IGROV1 ovarian) was 2990 nM and the GI50 (K-562 leukemia) was 1170 nM. It also gave a TGI (K-562 leukemia) of 2420 nM, a GI50 (KM12 colon) of 660 nM and a TGI (KM12 colon) of 2750 nM. It also gave a GI50 (LOX IMVI melanoma) of 389 nM, a TGI (LOX IMVI melanoma) of 1660 nM and a GI50 (M14 melanoma) of 51.2 nM. The TGI (M14 melanoma) was 220 nM, the GI50 (MALME-3M melanoma) was 31.8 nM and the TGI (MALME-3M melanoma) was 118 nM. The GI50 (MCF7 breast) was 1880 nM, the TGI (MCF7 breast) was 3620 nM and the GI50 (MDA-MB-231 breast) was 477 nM. It also gave a TGI (MDA-MB-231 breast) of 3630 nM, a GI50 (MDA-MB-435 melanoma) of 415 nM and a TGI (MDA-MB-435 melanoma) of 11600 nM. For the same molecule, the GI50 (MDA-MB-468 breast) was 2730 nM, the TGI (MDA-MB-468 breast) was 5070 nM and the GI50 (MOLT-4 leukemia) was 1620 nM. It also gave a TGI (MOLT-4 leukemia) of 3000 nM, a GI50 (NCI-H226 lung) of 1640 nM and a TGI (NCI-H226 lung) of 10200 nM. The GI50 (NCI-H23 lung) was 422 nM, the TGI (NCI-H23 lung) was 2050 nM and the GI50 (NCI-H322M lung) was 1510 nM. For the same molecule, the TGI (NCI-H322M lung) was 13700 nM, the GI50 (NCI-H460 NSCLC) was 995 nM and the TGI (NCI-H460 NSCLC) was 2280 nM. It also gave a GI50 (NCI-H522 lung) of 4330 nM, a TGI (NCI-H522 lung) of 16900 nM and a GI50 (NCI/ADR-RES ovarian) of 9210 nM. For the same molecule, the TGI (NCI/ADR-RES ovarian) was 21300 nM, the GI50 (OVCAR-3 ovarian) was 3430 nM and the TGI (OVCAR-3 ovarian) was 13700 nM. For the same molecule, the GI50 (OVCAR-4 ovarian) was 10400 nM, the TGI (OVCAR-4 ovarian) was 22200 nM and the GI50 (OVCAR-5 ovarian) was 668 nM. It also gave a TGI (OVCAR-5 ovarian) of 11900 nM, a GI50 (OVCAR-8 ovarian) of 6520 nM and a TGI (OVCAR-8 ovarian) of 19600 nM. The GI50 (PC-3 prostate) was 5640 nM, the TGI (PC-3 prostate) was 16800 nM and the GI50 (RPMI-8226 leukemia) was 1780 nM. It also gave a TGI (RPMI-8226 leukemia) of 4380 nM, a GI50 (RXF 393 renal) of 1510 nM and a TGI (RXF 393 renal) of 3180 nM. For the same molecule, the GI50 (SF-268 CNS) was 1700 nM, the TGI (SF-268 CNS) was 5370 nM and the GI50 (SF-295 CNS) was 13400 nM. For the same molecule, the TGI (SF-295 CNS) was 26300 nM, the GI50 (SF-539 CNS) was 1620 nM and the TGI (SF-539 CNS) was 3020 nM. It also gave a GI50 (SK-MEL-28 melanoma) of 187 nM, a TGI (SK-MEL-28 melanoma) of 528 nM and a GI50 (SK-MEL-5 melanoma) of 281 nM. For the same molecule, the TGI (SK-MEL-5 melanoma) was 1620 nM, the GI50 (SK-OV-3 ovarian) was 4990 nM and the TGI (SK-OV-3 ovarian) was 17800 nM. For the same molecule, the GI50 (SN12C renal) was 1520 nM, the TGI (SN12C renal) was 13200 nM and the GI50 (SNB-19 CNS) was 4050 nM. It also gave a TGI (SNB-19 CNS) of 17300 nM, a GI50 (SNB-75 CNS) of 1620 nM and a TGI (SNB-75 CNS) of 4340 nM. It also gave a GI50 (SW-620 colon) of 371 nM, a TGI (SW-620 colon) of 10400 nM and a GI50 (T-47D breast) of 2650 nM. The TGI (T-47D breast) was 6460 nM, the GI50 (TK-10 renal) was 3120 nM and the TGI (TK-10 renal) was 11800 nM. The GI50 (U251 glioblastoma) was 2570 nM, the TGI (U251 glioblastoma) was 11300 nM and the GI50 (UACC-257 melanoma) was 156 nM. For the same molecule, the TGI (UACC-257 melanoma) was 428 nM, the GI50 (UACC-62 melanoma) was 104 nM and the TGI (UACC-62 melanoma) was 378 nM. The GI50 (UO-31 renal) was 1610 nM and the TGI (UO-31 renal) was 5390 nM.
